According to article PMC5986872, “Schaftoside Interacts With NlCDK1 Protein: A Mechanism of Rice Resistance to Brown Planthopper, Nilaparvata lugens” (Frontiers in Plant Science, 2018):

Biological target: T1, NlCDK1 (Nilaparvata lugens, UniProt A0A1W5R2Z8)
T1 construct: CDS cloned BamHI/HindIII in pET32a
Assay: intrinsic fluorescence quenching titration, double-log plot
Format: binding
Details: PBS; pH 7.4; 0.24 × 10^-6 mol/L protein; excitation 281 nm, emission 335 nm

T1 sequence (A0A1W5R2Z8 1-302): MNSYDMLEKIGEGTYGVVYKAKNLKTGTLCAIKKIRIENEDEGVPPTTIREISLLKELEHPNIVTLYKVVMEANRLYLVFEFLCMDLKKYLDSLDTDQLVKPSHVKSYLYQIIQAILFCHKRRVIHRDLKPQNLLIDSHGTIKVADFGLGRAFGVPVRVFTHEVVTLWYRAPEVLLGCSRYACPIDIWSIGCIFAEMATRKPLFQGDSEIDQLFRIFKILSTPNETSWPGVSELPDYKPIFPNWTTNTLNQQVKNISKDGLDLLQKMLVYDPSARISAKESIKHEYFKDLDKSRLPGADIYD

KA (apparent association constant): 6.436 × 10^3
Structure (SMILES): O=c1cc(-c2ccc(O)cc2)oc2c([C@@H]3OC[C@H](O)[C@H](O)[C@H]3O)c(O)c([C@@H]3O[C@H](CO)[C@@H](O)[C@H](O)[C@H]3O)c(O)c12 [schaftoside, 6-C-beta-D-Glucosyl-8-C-alpha-L-arabinosylapigenin]
